The results in this text go back to patent publication US20240018102A1, “COMPOUNDS AND COMPOSITIONS FOR TREATING CONDITIONS ASSOCIATED WITH LPA RECEPTOR ACTIVITY” (Lhotse Bio, Inc., priority 2020, published 2024).

This assay deals with T1, human LPA1 (Homo sapiens, UniProt Q92633).
T1 construct: expressed in transfected cells; host or cells: CHO-K1
T1 sequence (Q92633 whole entry): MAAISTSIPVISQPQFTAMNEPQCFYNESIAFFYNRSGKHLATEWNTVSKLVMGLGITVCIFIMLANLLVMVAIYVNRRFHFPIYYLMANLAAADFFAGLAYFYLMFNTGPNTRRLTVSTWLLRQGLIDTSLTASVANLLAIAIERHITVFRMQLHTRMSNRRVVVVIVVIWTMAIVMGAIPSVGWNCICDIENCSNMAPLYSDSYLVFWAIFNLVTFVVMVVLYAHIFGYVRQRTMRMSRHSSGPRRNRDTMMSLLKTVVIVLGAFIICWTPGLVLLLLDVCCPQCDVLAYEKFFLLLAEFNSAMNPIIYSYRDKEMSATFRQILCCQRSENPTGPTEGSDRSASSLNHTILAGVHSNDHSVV
The experiment in a line: In vitro LPA1 calcium flux antagonist assay, Bioduro protocol. It counts as cell-based. The following applies: CHO-K1 cells overexpressing human LPA1 and G15a; LPA challenge at EC80; calcium mobilization on FLIPR Tetra; read-out: IC50 (nM) in Assay B2. The protocol: In Vitro LPA1 Calcium Flux Antagonist Assay Bioduro Protocol
CHO-K1 cells overexpressing human LPA1 and G15a were seeded at a total volume of 20 uL (15000 cells/well) into Matrigel pre-coated 384-well plates (coming -3764) and incubated at 37° C. After overnight incubation, the cells were serum starved for 4 h. Assays were performed in dye loading buffer containing 1× Fluo-8 AM (AAT Bioquest, 21080) and 2.5 mM probenecid (Thermo Fisher, 36400) in HBSS/20 mM Hepes. After cell starvation, the medium was replaced with 20 uL of dye loading buffer and incubated at 37° C. for 30 min. Then 5 uL of 5× compound titrated in dye loading buffer was added to the cells and incubated for 30 min followed by LPA challenge at EC80. Calcium mobilization was measured on a FLIPR Tetra (MDS). For LPA EC80 determination, starved cells were incubated with 20 uL of dye loading buffer for 1 h, then 5 uL of 5×LPA titrated in dye loading buffer was added to the cells. Calcium signals induced by LPA was monitors on a FLIPR.
Percentage inhibition is calculated using the following formula:
% Inhibition=100%×(1−(mean RFU of test sample−mean RFU of DMSO)/(mean RFU of LPA control−mean RFU of DMSO)).
With `COc1cc([C@@H](O)[C@H](Cn2nnc3cccc(C(=O)O)c32)OC2CCCC2)cc(OC)c1C` (racemic) [Compound 209], the half-inhibitory concentration (IC50) turned out to be 812 nM. The value for `COc1cc([C@@H](O)[C@H](Cc2nc([C@H](C)C(=O)O)c(C)s2)OC2CCCC2)cc(OC)c1C` (single isomer, unassigned) [Compound 239] was 37.4 nM; that for `COc1cc([C@@H](O)[C@H](Cc2nc([C@@H](C)C(=O)O)c(C)s2)OC2CCCC2)cc(OC)c1C` (single isomer, unassigned) [Compound 240] was 885 nM; that for `COc1cc([C@@H](O)[C@H](Cn2cc3cccc(C(=O)O)c3n2)OCC(C)C)cc(OC)c1C` [Compound 146] was 36.8 nM. The value for `COc1cc([C@@H](O)[C@H](Cn2cc3cccc(C(=O)O)c3n2)OC2CCCC2)cc(OC)c1OC` [Compound 147] was 126 nM; that for `COc1cc([C@@H](O)[C@H](Cn2cc3cccc(C(=O)O)c3n2)OC2CCCCC2)ccc1C(F)F` [Compound 148] was 525 nM. The value for `COc1cc([C@@H](O)[C@H](Cn2cc3cccc(C(=O)O)c3n2)OC2CCC(F)(F)CC2)cc(OC)c1C` [Compound 149] was 299 nM; that for `Cc1ccc([C@@H](O)[C@H](Cn2cc3cccc(C(=O)O)c3n2)OC2CCCC2)cc1OC(F)(F)F` [Compound 150] was 146 nM. For the compound `Cc1ccc([C@@H](O)[C@H](Cn2cc3cccc(C(=O)O)c3n2)OC2CCCC2)cc1O` [Compound 151], the concentration for half-maximal inhibition (IC50) is no less than 10000 nM. Take `COC(=O)c1sc(C[C@H](OC2CCCC2)[C@H](O)c2cc(OC)c(C)c(OC)c2)nc1CC(=O)O` [Compound 152]: the IC50 is 8.53 nM. Consider `COc1cc([C@@H](O)[C@H](Cn2cc3c(F)ccc(C(=O)O)c3n2)OC2CCCC2)cc(OC)c1C` [Compound 153], for which the half-inhibitory concentration (IC50) is 5.42 nM. The value for `COc1cc([C@@H](O)[C@H](Cn2cc3cc(F)cc(C(=O)O)c3n2)OC2CCCC2)cc(OC)c1C` [Compound 154] was 8.64 nM; that for `COc1cc([C@@H](O)[C@H](Cn2cc3ccc(F)c(C(=O)O)c3n2)OC2CCCC2)cc(OC)c1C` [Compound 155] was 308 nM. The value for `COc1cc([C@@H](O)[C@H](Cc2cn3nccc(C(=O)O)c3n2)OC2CCCC2)cc(OC)c1C` [Compound 156] was 301 nM; that for `COc1cc([C@@H](O)[C@H](Cc2nc3c(C(=O)O)cccc3s2)OC2CCCC2)cc(OC)c1C` [Compound 157, 2-((2S,3R)-2-(cyclopentyloxy)-3-(3,5-dimethoxy-4-methylphenyl)-3-hydroxypropyl)benzo[d]thiazole-4-carboxylic acid] was 6.3 nM. The same measure for `COc1cc([C@@H](O)[C@H](Cn2cc3ccnc(C(=O)O)c3n2)OC2CCCC2)cc(OC)c1C` [Compound 158]: 55.8 nM; for `COc1cc([C@@H](O)[C@H](Cn2cc3cncc(C(=O)O)c3n2)OC2CCCC2)cc(OC)c1C` [Compound 159]: 49.6 nM; for `COc1cc([C@@H](O)[C@H](Cn2cc3nccc(C(=O)O)c3n2)OC2CCCC2)cc(OC)c1C` [Compound 160, 2-((2S,3R)-2-(cyclopentyloxy)-3-(3,5-dimethoxy-4-methylphenyl)-3-hydroxypropyl)-2H-pyrazolo[4,3-b]pyridine-7-carboxylic acid]: 138 nM. With `COc1cc([C@@H](O)[C@H](Cn2cc3cc(C)cc(C(=O)O)c3n2)OC2CCCC2)cc(OC)c1C` [Compound 161], the concentration for half-maximal inhibition (IC50) was 6.28 nM. The same measure for `COc1cc([C@@H](O)[C@H](Cn2cc3cc(C(F)F)cc(C(=O)O)c3n2)OC2CCCC2)cc(OC)c1C` [Compound 162]: 3.93 nM; for `COc1cc([C@@H](O)[C@H](Cn2cc3cc(C(F)(F)F)cc(C(=O)O)c3n2)OC2CCCC2)cc(OC)c1C` [Compound 163]: 4.23 nM. The value for `COc1cc(C(=O)O)c2nn(C[C@H](OC3CCCC3)[C@H](O)c3cc(OC)c(C)c(OC)c3)cc2c1` [Compound 164] was 11.9 nM; that for `COc1cc([C@@H](O)[C@H](Cn2cc3cc(C#N)cc(C(=O)O)c3n2)OC2CCCC2)cc(OC)c1C` [Compound 165] was 6.28 nM.
